Measured values taken from ChEMBL document CHEMBL4414640, “Antiproliferative Pterocarpans and Coumestans from Lespedeza bicolor” (2019).
The source made the active and inactive calls. No cut-off for these calls is given here.

Assays:
[1] = tested on: Jurkat; experiment: Induction of cell cycle arrest in human Jurkat cells assessed as accumulation at G2/M phase at 10 uM incubated for 48 hrs by PI staining based cell counting method (reference value: 16.7%); assay type: functional
[2] = tested on: Jurkat; experiment: Induction of cell cycle arrest in human Jurkat cells assessed as accumulation at G1 phase at 10 uM incubated for 48 hrs by PI staining based cell counting method (reference value: 71.4%); assay type: functional
[3] = tested on: Jurkat; experiment: Induction of apoptosis in human Jurkat cells assessed as increase in PARP cleavage at 10 uM incubated for 48 hrs by Western blot analysis; assay type: functional, cell-based
[4] = tested on: Jurkat; experiment: Induction of apoptosis in human Jurkat cells assessed as early apoptotic cells at 10 uM incubated 48 hrs by annexin-V and 7AAD staining based flow cytometry (reference value: 3.16%); assay type: functional
[5] = tested on: Jurkat; experiment: Induction of apoptosis in human Jurkat cells at 10 uM incubated for 24 to 48 hrs by phase contrast microscopic method; assay type: functional, cell-based
[6] = tested on: Jurkat; experiment: Induction of apoptosis in human Jurkat cells assessed as necrotic cells at 10 uM incubated 48 hrs by annexin-V and 7AAD staining based flow cytometry (reference value: 1.16%); assay type: functional
[7] = tested on: Jurkat; experiment: Induction of cell cycle arrest in human Jurkat cells assessed as accumulation at S phase at 10 uM incubated for 48 hrs by PI staining based cell counting method (reference value: 12.2%); assay type: functional
[8] = tested on: Jurkat; experiment: Induction of apoptosis in human Jurkat cells assessed as late apoptotic cells at 10 uM incubated 48 hrs by annexin-V and 7AAD staining based flow cytometry (reference value: 3.78%); assay type: functional
[9] = tested on: Jurkat; experiment: Antiproliferative activity against human Jurkat cells at 5 to 100 uM incubated for 48 hrs by MTS assay; assay type: functional, cell-based
[10] = tested on: Jurkat; experiment: Induction of apoptosis in human Jurkat cells assessed as downregulation in BCL2 protein expression at 10 uM incubated for 48 hrs by Western blot analysis; assay type: functional, cell-based
[11] = tested on: Jurkat; experiment: Induction of mitochondrial membrane potential loss in human Jurkat cells assessed as membrane potential at 10 uM incubated for 48 hrs by TMRM staining based flow cytometric analysis (reference value: 94.1%); assay type: functional
[12] = tested on: Jurkat; experiment: Induction of apoptosis in human Jurkat cells assessed as viable cells at 10 uM incubated 48 hrs by annexin-V and 7AAD staining based flow cytometry (reference value: 91.9%); assay type: functional; settings: read-out: Activity

COc1cc2c(cc1O)OC1c3c(OC)cc(O)c(C/C=C(\C)CCC=C(C)C)c3OCC21 (stereo unspecified)
Activity [1]: 9.3%
Activity [2]: 82.1%
Activity [3]: Active
Activity [4]: 11.3%
Activity [5]: Active
Activity [6]: 4.43%
Activity [7]: 8.78%
Activity [8]: 40.4%
Activity [9]: Active
Activity [10]: Active
Activity [11]: 46.8%
viability at 10 µM [12]: 43.9%

COc1c(C/C=C(\C)CCC=C(C)C)c(O)cc(O)c1-c1oc2c3c(c(O)cc2c1C=O)OC(C)(C)C=C3
Activity [9]: Active

COc1c(CC=C(C)C)c(O)cc2c1[C@@H]1Oc3c(cc(O)c4c3C=CC(C)(C)O4)[C@@H]1CO2
Activity [9]: Active

COc1c(CC=C(C)C)c(O)cc(O)c1-c1oc2c3c(c(O)cc2c1C=O)OC(C)(C)C=C3
Activity [9]: Active

COc1c(CC=C(C)C)c(O)cc2oc(=O)c3c4cc(O)c5c(c4oc3c12)C=CC(C)(C)O5
Activity [9]: Active

COc1c(CC=C(C)C)c(O)cc2c1[C@@H]1Oc3c(ccc(O)c3CC=C(C)C)[C@@H]1CO2
Activity [9]: Active

COc1c(CC=C(C)C)c(O)cc2c1[C@@H]1Oc3c(ccc4c3C=CC(C)(C)O4)[C@@H]1CO2
Activity [9]: Active

COc1c(C/C=C(\C)CCC=C(C)C)c(O)cc2c1[C@@H]1Oc3c(cc(O)c4c3C=CC(C)(C)O4)[C@@H]1CO2
Activity [9]: Active

COc1c(CC=C(C)C)c(O)cc2oc(=O)c3c4cc(O)c(O)c(CC=C(C)C)c4oc3c12
Activity [1]: 7.05%
Activity [2]: 82.3%
Activity [3]: Active
Activity [4]: 12.3%
Activity [5]: Active
Activity [6]: 3.4%
Activity [7]: 10.9%
Activity [8]: 46.7%
Activity [9]: Active
Activity [10]: Active
Activity [11]: 12.9%
viability at 10 µM [12]: 37.6%
